# Experimental data taken from patent US9828350B2, “5,6-dihydro-2H-[1,4]oxazin-3-yl-amine derivatives useful as inhibitors of beta-secretase (BACE)” (Janssen Pharmaceutica NV, priority 2010, dated 2017).
# Legend:
# Abeta 1-37 = settings: Beagle dog, single dose 20 mg/kg, at 24 h
# Abeta 1-42 = assay: Cellular αLisa assay in SKNBE2 cells, Abeta 1-42; type: cell-based, human; settings: Homo sapiens, SKNBE2, 18 h, incubated for 18 hours, read-out: Cellular αLisa assay in SKNBE2 cells Abeta 42 pIC50 (converted)
# Procedure, shortened: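 Secreted Abeta levels were measured by sandwich αLisa, pairing biotin-AbN/25 donor beads with Ab4G8 acceptor beads for total Abeta or cAb42/26 for Abeta 1-42, read at 615 nm after 650 nm excitation following 1 hour. Cells were SKNBE2 expressing wild-type hAPP695, exposed to compound for 18 hours.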
# [1] = Single dose pharmacology in the Beagle dog, limited safety evaluation; type: in vivo; settings: single dose 20 mg/kg
# Procedure: Single Dose Pharmacology in the Beagle Dog
# Compound 86 was tested to evaluate the effect on the beta-amyloid profile in cerebrospinal fluid (CSF) of dogs after a single dose, in combination with pharmacokinetic (PK) follow up and limited safety evaluation. 6 Beagle dogs (3 male, 3 female) were dosed with vehicle (4 ml/kg of an aqueous suspension of 20% cyclodextrin and Tween) and 6 Beagle dogs (3 male, 3 female) were dosed with compound 86 (20 mg/kg in 2 ml/kg of an aqueous 20% cyclodextrin solution) on an empty stomach. CSF was taken in conscious animals directly from the lateral ventricle via a cannula which was screwed in the skull and covered with subcutaneous tissue and skin, before and at 4, 8 and 24 hours after dosing. 8 Hours after dosing the animals got access to their regular meal for 30 minutes. Blood was taken for PK follow up (0.5, 1, 2, 4, 8 and 24 hours) and at the time of the CSF sampling, samples for serum analysis were taken. An additional sample for serum analysis was taken 10 days after dosing. The CSF samples were used for measurement of Abeta 1-37, Abeta 1-38, Abeta 1-40 and Abeta 1-42.
# Aβ42 = assay: Demonstration of in vivo efficacy, brain Aβ42 lowering (ELISA); settings: mouse brain, 30 mpk, s.c., 4 h
# Source text: To determine whether acute administration of an Aβ42 peptide lowering agent would reduce Aβ peptide levels in vivo, non-transgenic rodents, e.g. mice or rats were used. Animals treated with the Aβ peptide lowering agent were examined and compared to those untreated or treated with vehicle and brain levels of soluble Aβ42 and total Aβ were quantitated by standard techniques, for example, using ELISA.
# A typical protocol for measuring Aβ42 lowering in vivo is shown but it is only one of many variations that could be used to optimize the levels of detectable Aβ. For example, Aβ peptide lowering compounds were formulated in 20% hydroxypropyl 3 cyclodextrin. The Aβ peptide lowering agents were administered as a single oral dose (p.o.) or a single subcutaneous dose (s.c.) to overnight fasted animals. After a certain time, usually 2 or 4 h (as indicated in Table 19), the animals were sacrificed and Aβ42 levels were analysed.
# Blood was collected by decapitation and exsanguinations in EDTA-treated collection tubes. Blood was centrifuged at 1900 g for 10 minutes (min) at 4° C. and the plasma recovered and flash frozen for later analysis. The brain was removed from the cranium and hindbrain. The cerebellum was removed and the left and right hemisphere were separated. The left hemisphere was stored at −18° C. for quantitative analysis of test compound levels. The right hemisphere was rinsed with phosphate-buffered saline (PBS) buffer and immediately frozen on dry ice and stored at −80° C. until homogenization for biochemical assays.
# Mouse brains from non-transgenic animals were resuspended in 8 volumes of 0.4% DEA (diethylamine)/50 mM NaCl containing protease inhibitors (Roche-11873580001 or 04693159001) per gram of tissue, e.g. for 0.158 g brain, add 1.264 ml of 0.4% DEA. All samples were homogenized in the FastPrep-24 system (MP Biomedicals) using lysing matrix D (MPBio #6913-100) at 6 m/s for 20 seconds. Homogenates were centrifuged at 221.300×g for 50 min. The resulting high speed supernatants were then transferred to fresh eppendorf tubes. Nine parts of supernatant were neutralized with 1 part 0.5 M Tris-HCl pH 6.8 and used to quantify Aβtotal and Aβ42.
# To quantify the amount of Aβtotal and Aβ42 in the soluble fraction of the brain homogenates, Enzyme-Linked-Immunosorbent-Assays were used. Briefly, the standards (a dilution of synthetic Aβ1-40 and Aβ1-42, Bachem) were prepared in 1.5 ml Eppendorf tube in Ultraculture, with final concentrations ranging from 10000 to 0.3 pg/ml. The samples and standards were co-incubated with HRPO-labelled N-terminal antibody for Aβ42 detection and with the biotinylated mid-domain antibody 4G8 for Aβtotal detection. […] The plate was allowed to incubate overnight at 4° C. in order to allow formation of the antibody-amyloid complex. Following this incubation and subsequent wash steps the ELISA for Aβ42 quantification was finished by addition of Quanta Blu fluorogenic peroxidase substrate according to the manufacturer's instructions (Pierce Corp., Rockford, Ill.). A reading was performed after 10 to 15 min (excitation 320 nm/emission 420 nm).
smiles,measurement,setting,value
"C[C@]1(c2cccc(NC(=O)c3ccc(Cl)cn3)c2)N=C(N)CO[C@@H]1F (single isomer, unassigned) [Compound 86, (R*,R*)—N-[3-(5-amino-2-fluoro-3-methyl-3,6-dihydro-2H-1,4-oxazin-3-yl)phenyl]-5-chloropyridine-2-carboxamide]",decrease in Abeta 1-37 in CSF compared to own baseline,Abeta 1-37,72%
same,IC50,Abeta 1-42,6.92 nM
same,clinical abnormalities in behavior,[1],no overt clinical abnormalities in behavior
same,"changes in serum parameters (liver enzymes, bilirubin, ...)",[1]; serum up to 10 days after dosing,No acute or delayed changes in serum parameters
same,Aβ42 (% Ctrl)_Mean,Aβ42,60 % Ctrl
same,melting point,,157.7 °C
